From article PMC7093416, “Selective USP7 inhibition elicits cancer cell killing through a p53-dependent mechanism” (Scientific Reports, 2020)
Like-named read-outs stand apart in the source and are kept apart here.

Columns and labels:
USP7-F291N = target: T1, USP7-F291N (Homo sapiens, UniProt Q93009, F291N); assay: Ub-AMC enzymatic assay, USP7-F291N mutant; format: biochemical; conditions: 6-hr pre-incubation
T1 construct: made in house

p53 target genes = assay: Quantitative real-time PCR of p53 target genes in MCF7 cells; format: cell-based; conditions: 1 μM, 24 hours
Description: After cell treatment under the indicated conditions, total cellular RNA was purified using a Qiagen RNEasy kit. 1 μg of RNA was then converted to cDNA using SuperScript III First-Strand Synthesis (Invitrogen). cDNA from each sample was then combined with the indicated TaqMan probe and 2x MasterMix in a 96-well Fast RT-PCR plate (Invitrogen). qPCR was performed on an Invitrogen 7500 Fast qPCR instrument and gene expression was calculated using the 2^-∆∆Ct method on Graphpad Prism.

USP7 [1] = target: T2, USP7 (Homo sapiens, UniProt Q93009); assay: Competitive ABPP with HA-Ub-VS in MCF7 crude cell extracts; format: binding; design: endogenous in cells; host or cells: MCF7; conditions: read-out: IC50 of inhibition of HA-Ub-VS labeling
T2 sequence (Q93009 whole entry): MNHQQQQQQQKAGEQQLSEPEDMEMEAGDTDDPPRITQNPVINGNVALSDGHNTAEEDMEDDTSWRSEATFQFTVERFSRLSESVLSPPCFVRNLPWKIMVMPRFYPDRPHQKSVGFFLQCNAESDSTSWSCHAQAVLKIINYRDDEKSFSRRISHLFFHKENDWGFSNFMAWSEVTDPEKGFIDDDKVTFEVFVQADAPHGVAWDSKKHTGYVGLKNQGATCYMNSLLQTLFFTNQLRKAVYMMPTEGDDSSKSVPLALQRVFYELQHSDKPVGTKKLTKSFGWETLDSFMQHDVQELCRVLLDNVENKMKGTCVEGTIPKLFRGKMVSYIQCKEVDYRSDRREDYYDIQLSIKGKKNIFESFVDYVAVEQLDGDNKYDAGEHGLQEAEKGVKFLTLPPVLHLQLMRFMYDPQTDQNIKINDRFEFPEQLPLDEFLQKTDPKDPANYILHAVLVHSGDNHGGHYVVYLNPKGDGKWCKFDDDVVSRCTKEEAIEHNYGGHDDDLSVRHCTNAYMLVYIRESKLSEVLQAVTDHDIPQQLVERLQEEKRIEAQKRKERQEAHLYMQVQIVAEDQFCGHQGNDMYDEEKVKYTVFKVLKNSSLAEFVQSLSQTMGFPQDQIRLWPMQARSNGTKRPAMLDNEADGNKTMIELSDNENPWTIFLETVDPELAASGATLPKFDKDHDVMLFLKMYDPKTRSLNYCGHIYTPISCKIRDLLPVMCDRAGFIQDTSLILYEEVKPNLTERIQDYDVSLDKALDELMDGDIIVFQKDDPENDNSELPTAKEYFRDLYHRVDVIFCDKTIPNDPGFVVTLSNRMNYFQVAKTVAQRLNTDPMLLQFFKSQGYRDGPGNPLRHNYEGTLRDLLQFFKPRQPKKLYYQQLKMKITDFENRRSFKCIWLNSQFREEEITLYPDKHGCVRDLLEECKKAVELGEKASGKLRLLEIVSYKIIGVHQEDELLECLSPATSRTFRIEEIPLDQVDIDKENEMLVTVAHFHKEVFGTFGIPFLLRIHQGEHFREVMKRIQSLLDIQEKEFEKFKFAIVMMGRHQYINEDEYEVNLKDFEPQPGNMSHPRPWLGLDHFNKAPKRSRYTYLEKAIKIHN
Description: HA-Ub-VS experiments were performed as previously described in Lamberto et al[29]. Briefly, target engagement lysis buffer (50 mM Tris pH 8.0, 150 mM NaCl, 5 mM MgCl2, 0.5 mM EDTA, 0.5% NP-40, 10% glycerol, 1 mM TCEP, protease and phosphatase inhibitors) was added to cell pellets on ice. Lysate was cleared by centrifugation and diluted to 1.67 mg/mL. Where indicated, 30 μL lysate was then incubated with inhibitors or DMSO for the indicated timepoints. 1 μM HA-Ub-VS was then added to the lysate and incubated at RT for the indicated time points. Labeling reactions were quenched with 4x LDS sample buffer (Thermo Fisher B0007) supplemented with 10% BME, vortexed vigorously, and heated to 95 C for 5 minutes. Samples were resolved by SDS-PAGE and analyzed by Western blot with the indicated antibodies.

USP7 [2] = target: T2, USP7; assay: XL177A-DTB chemoproteomic profiling with XL177A competition, USP7; format: binding; design: endogenous in cells; host or cells: HEK 293AD lysate
Description: HEK 293AD cells were lysed as described above, and the lysate was cleared by centrifugation. […] SDS was added to a final concentration of 1.2% (27.2 μL of a 10% stock), and denatured by heating to 80 °C for 5 minutes. After cooling to RT, 1125 μL 1X PBS was added to dilute the final SDS concentration to 0.2%. 50 μL streptavidin agarose slurry was added to each sample, followed by incubation at RT for 3 hours. After streptavidin enrichment, samples were washed vigorously (2×0.2% SDS, 3x PBS, 3x ddH2O). After the final wash, all supernatant was removed using a flat-bottom tip, and the resin was flash frozen and stored at −80 °C until workup for TMT labeling.
To remove rapigest, recovered supernatants were acidified with 10% TFA, incubated at 37 °C for 45 minutes, and centrifuged at 14,000 rpm for 15 minutes at 4 °C. Peptides were then desalted by C18, and dried by vacuum centrifugation. Dried peptides were reconstituted in 50 mM pH8.0 TEAB and labeled with TMT reagent at RT for 1 hour. TMT reactions were pooled and treated with hydroxylamine according to the manufacturer’s instructions. Peptide mixtures were then dried, reconstituted in 50 mM ammonium bicarbonate and desalted by SP3[53]. Eluted peptides were then analyzed by nanoflow LC-MS/MS as described[64] with a NanoAcquity UPLC system (Waters, Milford, MA) interfaced to a QExactive HF mass spectrometer (Thermofisher Scientific, San Jose, CA). TMT labeled peptides were injected onto a precolumn (4 cm POROS 10R2, Applied Biosystems, Framingham, MA), resolved on an analytical column (30 µm I.D. × 50 cm packed with 5 µm Monitor C18) and introduced to the mass spectrometer by ESI (spray voltage = 3.5 kV, flow rate ~30 nL/min). The mass spectrometer was operated in data dependent mode such that the 15 most abundant ions in each MS scan (m/z 300–2000, 120 K resolution, target = 3E6, lock mass for 445.120025 enabled) were subjected to MS/MS (m/z 100–2000, 30 K resolution, target = 1E5, max fill time = 100 ms). Dynamic exclusion was selected with a repeat count of 1 and an exclusion time of 30 seconds. MS/MS data was extracted to.mgf using mulitplierz scripts[54],[55] and searched against a forward-reverse human NCBI refseq database using Mascot version 2.6. Search parameters specified fixed carbamidomethylation of cysteine, fixed N-terminal and lysine TMT labelling, and variable oxidation (methionine). Additional multiplierz scripts were used to filter results to 1% FDR and derive protein-level aggregate reporter ion intensities using peptides mapping uniquely into the genome.

[3] = USP7 reporter ion intensity, XL177A-DTB pulldown, HEK293AD lysate pre-treated 100nM XL177A
[4] = USP7 reporter ion intensity, XL177A-DTB pulldown, HEK293AD lysate pre-treated 1uM XL177A
[5] = USP7 reporter ion intensity, XL177A-DTB pulldown, HEK293AD lysate pre-treated 10uM XL177A
[6] = USP7 reporter ion intensity, average of Run 1 and Run 2, 100nM XL177A
[7] = USP7 reporter ion intensity, average of Run 1 and Run 2, 1uM XL177A
[8] = USP7 reporter ion intensity, average of Run 1 and Run 2, 10uM XL177A

T1 sequence (Q93009 whole entry F291N): as the sequence (Q93009 whole entry) above, with F291N counted along it

IC50 (USP7-F291N): 629 nM
IC50 (USP7 [1]; 30 min preincubation): 85 nM
IC50 (USP7 [1]; 4 hr preincubation): 8 nM
inhibition of XL177A-DTB labeling (USP7 [2]; HEK293 lysate, XL177A 1 or 10 μM, 5 hours, only USP7 of 566 proteins): > 3 fold
Run 1 100nM 1 (USP7 [2]; [3]): 31732106
Run 1 100nM 2 (USP7 [2]; [3]): 30184262
Run 1 100nM 3 (USP7 [2]; [3]): 32232481
Run 2 100nM 1 (USP7 [2]; [3]): 31803721
Run 2 100nM 2 (USP7 [2]; [3]): 30185364
Run 2 100nM 3 (USP7 [2]; [3]): 32073312
Run 1 1uM 1 (USP7 [2]; [4]): 8663971
Run 1 1uM 2 (USP7 [2]; [4]): 7593596
Run 1 1uM 3 (USP7 [2]; [4]): 8340895
Run 2 1uM 1 (USP7 [2]; [4]): 8601953
Run 2 1uM 2 (USP7 [2]; [4]): 7625246
Run 2 1uM 3 (USP7 [2]; [4]): 8414168
Run 1 10uM 1 (USP7 [2]; [5]): 7727617
Run 1 10uM 2 (USP7 [2]; [5]): 7625585
Run 2 10uM 1 (USP7 [2]; [5]): 7739438
Run 2 10uM 2 (USP7 [2]; [5]): 7761626
AVE 100nM 1 (USP7 [2]; [6]): 31767914
AVE 100nM 2 (USP7 [2]; [6]): 30184813
AVE 100nM 3 (USP7 [2]; [6]): 32152896
AVE 1uM 1 (USP7 [2]; [7]): 8632962
AVE 1uM 2 (USP7 [2]; [7]): 7609421
AVE 1uM 3 (USP7 [2]; [7]): 8377532
AVE 10uM 1 (USP7 [2]; [8]): 7733528
AVE 10uM 2 (USP7 [2]; [8]): 7693606
SMILES: CN1CCN(CCC(=O)Nc2ccc3c(=O)n(CC4(O)CCN(C(=O)[C@@H](CCCNC(=O)c5ccc6c(Cl)c7c(nc6c5)CCCC7)Cc5ccccc5)CC4)cnc3c2)CC1 [XL177A]
transcription of p53 target genes (CDKN1A, GADD45A, BAX, DDB2) (p53 target genes): stimulating transcription of p53 target genes
